Laboratory results reported in US20240158446A1, “CYCLIC COMPOUND HAVING SELECTIVE INHIBITORY ACTION ON KRAS OVER HRAS AND NRAS” (CHUGAI SEIYAKU KABUSHIKI KAISHA, priority 2021, published 2024).

What was measured:
[1] = target: GDP-bound KRAS wild-type protein (Homo sapiens, UniProt P01116); assay: Binding to KRAS by surface plasmon resonance (SPR), Single Cycle Kinetics; conditions: SPR, Single Cycle Kinetics, 1:1 binding model; GDP-bound KRAS wild-type protein; read-out: KRAS KD
[2] = target: GDP-bound NRAS wild-type protein (Homo sapiens, UniProt P01111); assay: Binding to NRAS by surface plasmon resonance (SPR), Single Cycle Kinetics; conditions: SPR; GDP-bound NRAS wild-type protein vs GDP-bound KRAS wild-type protein; KD ratio class
[3] = target: GDP-bound HRAS wild-type protein (Homo sapiens, UniProt P01112); assay: Binding to HRAS by surface plasmon resonance (SPR), Single Cycle Kinetics; conditions: SPR; GDP-bound HRAS wild-type protein vs GDP-bound KRAS wild-type protein; KD ratio class
[4] = system: human lung cancer strain NCI-H441;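 further: cell proliferation inhibition after four days measured by CellTiter-Glo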

GDP-bound HRAS wild-type protein, sequence (P01112 whole entry): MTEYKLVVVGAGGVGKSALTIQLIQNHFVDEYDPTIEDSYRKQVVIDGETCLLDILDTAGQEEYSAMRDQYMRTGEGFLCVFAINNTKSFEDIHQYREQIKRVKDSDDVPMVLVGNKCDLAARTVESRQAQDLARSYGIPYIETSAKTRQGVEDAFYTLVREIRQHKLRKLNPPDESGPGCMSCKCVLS
GDP-bound KRAS wild-type protein, sequence (P01116 whole entry): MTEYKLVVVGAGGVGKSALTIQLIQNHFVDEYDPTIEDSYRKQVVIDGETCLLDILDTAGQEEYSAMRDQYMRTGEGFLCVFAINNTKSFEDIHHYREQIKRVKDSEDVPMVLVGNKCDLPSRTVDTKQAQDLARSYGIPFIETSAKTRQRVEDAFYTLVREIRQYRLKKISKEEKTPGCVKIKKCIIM
GDP-bound NRAS wild-type protein, sequence (P01111 whole entry): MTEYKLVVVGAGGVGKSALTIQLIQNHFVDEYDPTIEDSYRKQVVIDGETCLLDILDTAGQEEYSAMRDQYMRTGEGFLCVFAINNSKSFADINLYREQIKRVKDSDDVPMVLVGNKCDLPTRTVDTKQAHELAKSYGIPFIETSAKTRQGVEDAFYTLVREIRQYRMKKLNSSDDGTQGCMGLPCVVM

| SMILES | Kd [1] | IC50 [4] | NRAS/KRAS (ratio of KD value for NRAS to KD value for KRAS) [2] | HRAS/KRAS (ratio of KD value for HRAS to KD value for KRAS) [3] |
| --- | --- | --- | --- | --- |
| CCCOC[C@H]1C(=O)N[C@@H]([C@@H](C)CC)C(=O)N(C)CC(=O)N(C)[C@H]2C/C=C\CCN(C2=O)[C@@H](Cc2ccc(C(F)(F)F)cc2)C(=O)N(C)CC(=O)N[C@@H](CCc2cc(F)c(C(F)(F)F)c(F)c2)C(=O)N2C[C@H](OCC)C[C@H]2C(=O)NC2(CCCC2)C(=O)N(C)[C@@H](C2CCCC2)C(=O)N(C)[C@H](C(=O)N2CCCC2)CC(=O)N1C [PP1399] | 0.19 nM | 18.8 nM | A (a compound having 10 or more and less than 20 is denoted as A) | A (a compound having 10 or more and less than 20 is denoted as A) |
| CC[C@H](C)[C@@H]1NC(=O)[C@H](CC2CC2)N(C)C(=O)C[C@@H](C(=O)N(C)C)N(C)C(=O)[C@H](C2CCCC2)N(C)C(=O)C2(CCC2)NC(=O)[C@H](CCC(F)F)N(C)C(=O)[C@H](CCc2cc(F)c(C(F)(F)F)c(F)c2)NC(=O)CN(C)C(=O)[C@H](Cc2ccc(C(F)(F)F)cc2)N2CC/C=C\C[C@@H](C2=O)N(C)C(=O)CN(C)C1=O [PP1402] | 0.3 nM | 82 nM | A (a compound having 10 or more and less than 20 is denoted as A) | A (a compound having 10 or more and less than 20 is denoted as A) |
| CC[C@H](C)[C@@H]1NC(=O)[C@H](CC2CC2)N(C)C(=O)C[C@@H](C(=O)N(C)C)N(C)C(=O)[C@H](C2CCCC2)N(C)C(=O)C2(CCC2)NC(=O)[C@H](CC(F)F)N(C)C(=O)[C@H](CCc2cc(F)c(C(F)(F)F)c(F)c2)NC(=O)CN(C)C(=O)[C@H](Cc2ccc(C(F)(F)F)cc2)N2CC/C=C\C[C@@H](C2=O)N(C)C(=O)CN(C)C1=O [PP1403] | 0.6 nM | 111 nM | AA (a compound having 20 or more is denoted as AA) | A (a compound having 10 or more and less than 20 is denoted as A) |
| CC[C@H](C)[C@@H]1NC(=O)[C@H](CC2CC2)N(C)C(=O)C[C@@H](C)N(C)C(=O)[C@H](C2CCCC2)N(C)C(=O)C2(CCC2)NC(=O)[C@H](CCC(F)F)N(C)C(=O)[C@H](CCc2cc(F)c(C(F)(F)F)c(F)c2)NC(=O)CN(C)C(=O)[C@H](Cc2ccc(C(F)(F)F)cc2)N2CC/C=C\C[C@@H](C2=O)N(C)C(=O)CN(C)C1=O [PP1404] | 4.8 nM | 498 nM | A (a compound having 10 or more and less than 20 is denoted as A) | A (a compound having 10 or more and less than 20 is denoted as A) |
| CC[C@H](C)[C@@H]1NC(=O)[C@H](CC2CC2)N(C)C(=O)C[C@@H](C)N(C)C(=O)[C@H](C2CCCC2)N(C)C(=O)C2(CCC2)NC(=O)[C@H](CC(F)F)N(C)C(=O)[C@H](CCc2cc(F)c(C(F)(F)F)c(F)c2)NC(=O)CN(C)C(=O)[C@H](Cc2ccc(C(F)(F)F)cc2)N2CC/C=C\C[C@@H](C2=O)N(C)C(=O)CN(C)C1=O [PP1405] | 8.5 nM | 466 nM | A (a compound having 10 or more and less than 20 is denoted as A) | A (a compound having 10 or more and less than 20 is denoted as A) |

Stronger by Kd [1], values ahead:

| Kd [1] | IC50 [4] | SMILES | NRAS/KRAS (ratio of KD value for NRAS to KD value for KRAS) [2] | HRAS/KRAS (ratio of KD value for HRAS to KD value for KRAS) [3] |
| --- | --- | --- | --- | --- |
| 0.14 nM | 19.4 nM | CCCC[C@H]1C(=O)N[C@@H]([C@@H](C)CC)C(=O)N(C)CC(=O)N(C)[C@H]2C/C=C\CCN(C2=O)[C@@H](Cc2ccc(C(F)(F)F)cc2)C(=O)N(C)CC(=O)N[C@@H](CCc2cc(F)c(C(F)(F)F)c(F)c2)C(=O)N2C[C@H](OCC)C[C@H]2C(=O)NC2(CCC2)C(=O)N(C)[C@@H](C2CCCC2)C(=O)N(C)[C@H](C(=O)N2CCCC2)CC(=O)N1C [PP1396, (2S,8S,12R,14S,20S,23S,27S,30S,36S,38Z)-27-butyl-20-cyclopentyl-8-[2-[3,5-difluoro-4-(trifluoromethyl)phenyl]ethyl]-12-ethoxy-4,19,22,26,32,35-hexamethyl-30-[(1S)-1-methylpropyl]-23-(pyrrolidine-1-carbonyl)-2-[[4-(trifluoromethyl)phenyl]methyl]spiro[1,4,7,10,16,19,22,26,29,32,35-undecazatricyclo[34.5.1.0^10,14]dotetracont-38-ene-17,1′-cyclobutane]-3,6,9,15,18,21,25,28,31,34,42-undecone] | AA (a compound having 20 or more is denoted as AA) | A (a compound having 10 or more and less than 20 is denoted as A) |
| 0.073 nM | 3.7 nM | CCCC[C@H]1C(=O)N[C@@H]([C@@H](C)CC)C(=O)N(C)CC(=O)N(C)[C@H]2C/C=C\CCN(C2=O)[C@@H](Cc2ccc(C(F)(F)F)cc2)C(=O)N(C)CC(=O)N[C@@H](CCc2cc(F)c(C(F)(F)F)c(F)c2)C(=O)N2C[C@H](OCC)C[C@H]2C(=O)NC2(CCCC2)C(=O)N(C)[C@@H](C2CCCC2)C(=O)N(C)[C@H](C(=O)N(C)C)CC(=O)N1C [PP1397, (2S,8S,12R,14S,20S,23S,27S,30S,36S,38Z)-27-butyl-20-cyclopentyl-8-[2-[3,5-difluoro-4-(trifluoromethyl)phenyl]ethyl]-12-ethoxy-N,N,4,19,22,26,32,35-octamethyl-30-[(1S)-1-methylpropyl]-3,6,9,15,18,21,25,28,31,34,42-undecaoxo-2-[[4-(trifluoromethyl)phenyl]methyl]spiro[1,4,7,10,16,19,22,26,29,32,35-undecazatricyclo[34.5.1.0^10,14]dotetracont-38-ene-17,1′-cyclopentane]-23-carboxamide] | A (a compound having 10 or more and less than 20 is denoted as A) | A (a compound having 10 or more and less than 20 is denoted as A) |
| 0.072 nM | 10.9 nM | CCO[C@@H]1C[C@H]2C(=O)NC3(CCC3)C(=O)N(C)[C@@H](C3CCCC3)C(=O)N(C)[C@H](C(=O)N(C)C)CC(=O)N(C)[C@@H](CC3CC3)C(=O)N[C@@H]([C@@H](C)CC)C(=O)NCC(=O)N(C)[C@H]3C/C=C\CCN(C3=O)[C@@H](Cc3ccc(C(F)(F)F)cc3)C(=O)N(C)CC(=O)N[C@@H](CCc3cc(F)c(C(F)(F)F)c(F)c3)C(=O)N2C1 [PP1406, (2S,8S,12R,14S,20S,23S,27S,30S,36S,38Z)-20-cyclopentyl-27-(cyclopropylmethyl)-8-[2-[3,5-difluoro-4-(trifluoromethyl)phenyl]ethyl]-12-ethoxy-N,N,4,19,22,26,35-heptamethyl-30-[(1S)-1-methylpropyl]-3,6,9,15,18,21,25,28,31,34,42-undecaoxo-2-[[4-(trifluoromethyl)phenyl]methyl]spiro[1,4,7,10,16,19,22,26,29,32,35-undecazatricyclo[34.5.1.0^10,14]dotetracont-38-ene-17,1′-cyclobutane]-23-carboxamide] | A (a compound having 10 or more and less than 20 is denoted as A) | B (a compound having 3 or more and less than 10 is denoted as B) |
| 0.049 nM | 5.1 nM | CCCOC[C@H]1C(=O)N[C@@H]([C@@H](C)CC)C(=O)N(C)CC(=O)N(C)[C@H]2C/C=C\CCN(C2=O)[C@@H](Cc2ccc(C)cc2)C(=O)N(C)CC(=O)N[C@@H](CCc2cc(F)c(C(F)(F)F)c(F)c2)C(=O)N2C[C@H](OCC)C[C@H]2C(=O)NC2(CC(C)(C)C2)C(=O)N(C)[C@@H](C2CCCC2)C(=O)N(C)[C@H](C(=O)N(C)C)CC(=O)N1C [PP1400, (2S,8S,12R,14S,20S,23S,27S,30S,36S,38Z)-20-cyclopentyl-8-[2-[3,5-difluoro-4-(trifluoromethyl)phenyl]ethyl]-12-ethoxy-N,N,3′,3′,4,19,22,26,32,35-decamethyl-30-[(1S)-1-methylpropyl]-3,6,9,15,18,21,25,28,31,34,42-undecaoxo-27-(propoxymethyl)-2-(p-tolylmethyl)spiro[1,4,7,10,16,19,22,26,29,32,35-undecazatricyclo[34.5.1.0^10,14]dotetracont-38-ene-17,1′-cyclobutane]-23-carboxamide] | A (a compound having 10 or more and less than 20 is denoted as A) | B (a compound having 3 or more and less than 10 is denoted as B) |
| 0.032 nM | 2.3 nM | CCCOC[C@H]1C(=O)N[C@@H]([C@@H](C)CC)C(=O)N(C)CC(=O)N(C)[C@H]2C/C=C\CCN(C2=O)[C@@H](Cc2ccc(C(F)(F)F)cc2)C(=O)N(C)CC(=O)N[C@@H](CCc2cc(F)c(C(F)(F)F)c(F)c2)C(=O)N2C[C@H](OCC)C[C@H]2C(=O)NC2(CC(C)(C)C2)C(=O)N(C)[C@@H](C2CCCC2)C(=O)N(C)[C@H](C(=O)N(C)C)CC(=O)N1C [PP1398, (2S,8S,12R,14S,20S,23S,27S,30S,36S,38Z)-20-cyclopentyl-8-[2-[3,5-difluoro-4-(trifluoromethyl)phenyl]ethyl]-12-ethoxy-N,N,3′,3′,4,19,22,26,32,35-decamethyl-30-[(1S)-1-methylpropyl]-3,6,9,15,18,21,25,28,31,34,42-undecaoxo-27-(propoxymethyl)-2-[[4-(trifluoromethyl)phenyl]methyl]spiro[1,4,7,10,16,19,22,26,29,32,35-undecazatricyclo[34.5.1.0^10,14]dotetracont-38-ene-17,1′-cyclobutane]-23-carboxamide] | A (a compound having 10 or more and less than 20 is denoted as A) | A (a compound having 10 or more and less than 20 is denoted as A) |
